Data taken from ChEMBL document CHEMBL1133214, “Novel nikkomycin analogues: inhibitors of the fungal cell wall biosynthesis enzyme chitin synthase” (Bioorg Med Chem Lett, 2000).
In brackets after ≈: the same amount, converted by molar mass.

How the values were obtained:
Candida albicans = assay: Percent inhibition rate of 100 ug/mL against chitin synthase isolated from Candida albicans.
[1] = Inhibition of chitin synthase isolated from Candida Albicans.

Q: Which Rate (Candida albicans) does the source give for `CC(C)(SCc1ccc(O)cn1)[C@H](N)C(=O)N[C@H](C(=O)O)[C@H]1O[C@@H](n2ccc(=O)[nH]c2=O)[C@H](O)C1O` (single isomer, unassigned) here?
A: The Rate was 58%.

Q: Which Rate (Candida albicans) does the source give for `N[C@@H](CSc1ccccn1)C(=O)N[C@H](C(=O)O)[C@H]1O[C@@H](n2ccc(=O)[nH]c2=O)[C@H](O)C1O` (single isomer, unassigned) here?
A: The Rate was 48%.

Q: With `CC(=O)NCSC[C@H](N)C(=O)N[C@H](C(=O)O)[C@H]1O[C@@H](n2ccc(=O)[nH]c2=O)[C@H](O)C1O` (single isomer, unassigned) as the compound, how does the Rate (Candida albicans) read?
A: Its Rate is 65%.

Q: What does the source list for `N[C@@H](Cc1cc2ccccc2c2ccccc12)C(=O)N[C@H](C(=O)O)[C@H]1O[C@@H](n2ccc(=O)[nH]c2=O)[C@H](O)C1O` (single isomer, unassigned)?
A: Rate (Candida albicans): 99%; IC50 [1]: 0.31 mg/L (≈ 0.58 µM)

Q: With `CC(C)(SCc1cccc(O)c1)[C@H](N)C(=O)N[C@H](C(=O)O)[C@H]1O[C@@H](n2ccc(=O)[nH]c2=O)[C@H](O)C1O` (single isomer, unassigned) as the compound, how does the Rate (Candida albicans) read?
A: The Rate was 100%.

Q: And the IC50 [1]?
A: The IC50 was 4.91 mg/L (≈ 9.36 µM).

Q: Which Rate (Candida albicans) does the source give for `N[C@@H](CSc1ccc(C(=O)O)cn1)C(=O)N[C@H](C(=O)O)[C@H]1O[C@@H](n2ccc(=O)[nH]c2=O)[C@H](O)C1O` (single isomer, unassigned) here?
A: Its Rate is 64%.

Q: And the IC50 [1]?
A: Its IC50 is 52.5 mg/L (≈ 103 µM).

Q: What does the source list for `CC(C)(SCc1ccccc1O)[C@H](N)C(=O)N[C@H](C(=O)O)[C@H]1O[C@@H](n2ccc(=O)[nH]c2=O)[C@H](O)C1O` (single isomer, unassigned)?
A: Rate (Candida albicans): 88%; IC50 [1]: 13.8 mg/L (≈ 26.3 µM)

Q: For `CCCCCCCCCCCCSC[C@H](N)C(=O)N[C@H](C(=O)O)[C@H]1O[C@@H](n2ccc(=O)[nH]c2=O)[C@H](O)C1O` (single isomer, unassigned), which Rate (Candida albicans) is on record?
A: The Rate was 64%.

Q: Which IC50 [1] does the source give for `C[C@@H]([C@H](N)C(=O)N[C@H](C(=O)O)[C@H]1O[C@@H](n2ccc(=O)[nH]c2=O)[C@H](O)C1O)[C@H](O)c1ccc(O)cn1` (single isomer, unassigned) [NIKKOMYCIN] here?
A: Its IC50 is 0.393 mg/L (≈ 0.793 µM).

Q: With `N[C@@H](CSc1ccc(O)cn1)C(=O)N[C@H](C(=O)O)[C@H]1O[C@@H](n2ccc(=O)[nH]c2=O)[C@H](O)C1O` (single isomer, unassigned) as the compound, how does the Rate (Candida albicans) read?
A: The Rate was 73%.

Q: What about the IC50 [1] of the same compound?
A: The IC50 was 36 mg/L (≈ 74.5 µM).

Q: With `N[C@@H](Cc1cccnc1)C(=O)N[C@H](C(=O)O)[C@H]1O[C@@H](n2ccc(=O)[nH]c2=O)[C@H](O)C1O` (single isomer, unassigned) as the compound, how does the Rate (Candida albicans) read?
A: The Rate was 82%.

Q: What about the IC50 [1] of the same compound?
A: The IC50 was 19.8 mg/L (≈ 45.5 µM).

Q: For `CC(C)(SCc1ccc(O)cc1)[C@H](N)C(=O)N[C@H](C(=O)O)[C@H]1O[C@@H](n2ccc(=O)[nH]c2=O)[C@H](O)C1O` (single isomer, unassigned), which Rate (Candida albicans) is on record?
A: Its Rate is 99%.

Q: And the IC50 [1]?
A: Its IC50 is 5.89 mg/L (≈ 11.2 µM).

Q: Which Rate (Candida albicans) does the source give for `CC(C)=CCC/C(C)=C/CSC[C@H](N)C(=O)N[C@H](C(=O)O)[C@H]1O[C@@H](n2ccc(=O)[nH]c2=O)[C@H](O)C1O` (single isomer, unassigned) here?
A: The Rate was 22%.

Q: For `N[C@@H](Cc1cccc2ccccc12)C(=O)N[C@H](C(=O)O)[C@H]1O[C@@H](n2ccc(=O)[nH]c2=O)[C@H](O)C1O` (single isomer, unassigned), which Rate (Candida albicans) is on record?
A: Its Rate is 99%.

Q: And the IC50 [1]?
A: The IC50 was 4.69 mg/L (≈ 9.68 µM).

Q: What does the source list for `N[C@@H](Cc1ccc2ccccc2c1)C(=O)N[C@H](C(=O)O)[C@H]1O[C@@H](n2ccc(=O)[nH]c2=O)[C@H](O)C1O` (single isomer, unassigned)?
A: Rate (Candida albicans): 96%; IC50 [1]: 6.43 mg/L (≈ 13.3 µM)

Q: With `N[C@@H](Cc1ccc(O)cc1)C(=O)N[C@H](C(=O)O)[C@H]1O[C@@H](n2ccc(=O)[nH]c2=O)[C@H](O)C1O` (single isomer, unassigned) as the compound, how does the Rate (Candida albicans) read?
A: Its Rate is 99%.

Q: What about the IC50 [1] of the same compound?
A: Its IC50 is 4.83 mg/L (≈ 10.7 µM).

Q: With `CC(C)(SCc1ccc2ccccc2c1)[C@H](N)C(=O)N[C@H](C(=O)O)[C@H]1O[C@@H](n2ccc(=O)[nH]c2=O)[C@H](O)C1O` (single isomer, unassigned) as the compound, how does the Rate (Candida albicans) read?
A: The Rate was 94%.

Q: And the IC50 [1]?
A: The IC50 was 1.42 mg/L (≈ 2.54 µM).

Q: With `N[C@@H](CSCc1ccccc1)C(=O)N[C@H](C(=O)O)[C@H]1O[C@@H](n2ccc(=O)[nH]c2=O)[C@H](O)C1O` (single isomer, unassigned) as the compound, how does the Rate (Candida albicans) read?
A: The Rate was 78%.

Q: With `Nc1ccc(SC[C@H](N)C(=O)N[C@H](C(=O)O)[C@H]2O[C@@H](n3ccc(=O)[nH]c3=O)[C@H](O)C2O)nc1` (single isomer, unassigned) as the compound, how does the Rate (Candida albicans) read?
A: The Rate was 42%.

Q: For `N[C@@H](CSc1ccc2ccccc2c1)C(=O)N[C@H](C(=O)O)[C@H]1O[C@@H](n2ccc(=O)[nH]c2=O)[C@H](O)C1O` (single isomer, unassigned), which Rate (Candida albicans) is on record?
A: Its Rate is 40%.

Q: For `N[C@@H](Cc1ccc(O)cn1)C(=O)N[C@H](C(=O)O)[C@H]1O[C@@H](n2ccc(=O)[nH]c2=O)[C@H](O)C1O` (single isomer, unassigned), which Rate (Candida albicans) is on record?
A: Its Rate is 34%.

Q: For `CC(C)(SCc1ccccc1)[C@H](N)C(=O)N[C@H](C(=O)O)[C@H]1O[C@@H](n2ccc(=O)[nH]c2=O)[C@H](O)C1O` (single isomer, unassigned), which Rate (Candida albicans) is on record?
A: Its Rate is 97%.

Q: What about the IC50 [1] of the same compound?
A: The IC50 was 9.83 mg/L (≈ 19.3 µM).

Q: With `N[C@@H](CSCC1CCCCC1)C(=O)N[C@H](C(=O)O)[C@H]1O[C@@H](n2ccc(=O)[nH]c2=O)[C@H](O)C1O` (single isomer, unassigned) as the compound, how does the Rate (Candida albicans) read?
A: The Rate was 67%.

Q: Which Rate (Candida albicans) does the source give for `N[C@@H](CSc1ccc(O)cc1)C(=O)N[C@H](C(=O)O)[C@H]1O[C@@H](n2ccc(=O)[nH]c2=O)[C@H](O)C1O` (single isomer, unassigned) here?
A: The Rate was 44%.
